Assay results: patent US20250009914A1, “METHOD FOR SYNTHESIZING HYALURONIC ACID NANOPARTICLES, AND HYALURONIC ACID NANOPARTICLES PREPARED BY METHOD” (Kyungpook National University Industry-Academic Cooperation …, priority 2019, published 2025)

Tests used:
[1] = Thermal stability evaluation by HPLC; type: physicochemical; details: aqueous solution 100 uM, 50° C. for 48 hours
[2] = test system: B16F10 mouse melanoma cell line; experiment: Melanin contents assay; type: cell-based; details: B16F10, 48 hours; substance left 24 hours at 50° C. compared with −20° C., FIG. 23
Description: Whitening efficacy evaluation was measured by melanin contents assay and cellular tyrosinase activity assay after treating each experimental substance to a B16F10 mouse melanoma cell line and incubating the each experimental substance for 48 hours. As a control, ascorbic acid, ascorbic acid-2-glucoside (AA2G) and HAI (Oligo-HA) used in Example 2 were used. The substances used in the experiment were all left for 24 hours at −20° C. or 50° C. and then used in the experiment.

[3] = molecular target: T1, cellular tyrosinase (Mus musculus, UniProt P11344); experiment: Cellular tyrosinase activity assay; type: cell-based; details: B16F10, 48 hours; substance left 24 hours at 50° C. compared with −20° C., FIG. 23
T1 construct: Cell line: B16F10 mouse melanoma (Passage 10), 6 well plate; endogenous in cells; host or cells: B16F10 mouse melanoma cells
T1 sequence (P11344 19-533): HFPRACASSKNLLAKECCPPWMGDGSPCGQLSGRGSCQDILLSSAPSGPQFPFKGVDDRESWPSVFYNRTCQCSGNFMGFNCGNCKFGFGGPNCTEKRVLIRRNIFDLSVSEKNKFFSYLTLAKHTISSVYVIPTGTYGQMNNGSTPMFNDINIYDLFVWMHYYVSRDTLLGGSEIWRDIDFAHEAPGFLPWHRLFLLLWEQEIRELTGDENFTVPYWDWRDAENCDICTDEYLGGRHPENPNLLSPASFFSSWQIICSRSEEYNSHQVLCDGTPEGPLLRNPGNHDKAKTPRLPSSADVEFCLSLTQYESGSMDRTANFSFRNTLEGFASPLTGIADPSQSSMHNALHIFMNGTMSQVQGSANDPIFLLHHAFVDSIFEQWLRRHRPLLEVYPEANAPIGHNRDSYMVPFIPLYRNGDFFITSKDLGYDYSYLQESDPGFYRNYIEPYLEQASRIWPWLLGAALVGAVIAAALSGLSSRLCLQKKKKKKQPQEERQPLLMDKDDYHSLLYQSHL
Description: Cell line: B16F10 mouse melanoma (Passage 10), 6 well plate, 4×10^5 cells/well
Evaluation method: Cellular tyrosinase activity assay
Experimental substance treatment time: 48 hours
Experimental substance treatment concentration: See FIG. 25

[4] = test system: HDF-neo, Human primary dermal fibroblast-neonatal; experiment: Fibroblast proliferation, WST-8 assay (Ez-cytox); type: cell-based; details: 3 day, serum free condition, FIG. 26
Description: Next, the fibroblast proliferation effect was evaluated according to a conventional known method.
Evaluation method: WST-8 assay (Ez-cytox) and Procollagen ELISA (Takara #MK101)

Row | oxidation over time [1] | tyrosinase activity (whitening efficacy) [3] | SMILES | melanin production (whitening efficacy) [2] | fibroblast proliferation promoting efficacy [4]
1 | not oxidized over time | whitening efficacy disappeared | O=C1O[C@H]([C@@H](O)CO)C(O)=C1O [ascorbic acid] | whitening efficacy disappeared | almost not shown
2 | – | – | CCCCCCCCCCCCCCCC(=O)OCC(O)C1OC(=O)C(OP(=O)(O)O)=C1O (stereo not drawn) [APPS] | – | almost not shown
3 | – | – | O=C1O[C@H]([C@@H](O)CO)C(O)=C1O[C@H]1O[C@H](CO)[C@@H](O)[C@H](O)[C@H]1O [AA2G, ascorbic acid-2-glucoside] | – | almost not shown
